Assay results from ChEMBL document CHEMBL1158883, “Flavanone glycosides from Miconia trailii” (J Nat Prod, 2003).
pIC50: −log10 of the molar value.

Molecular target: Fatty acid synthase (Homo sapiens, UniProt P49327)
Test: Inhibition of fatty acid synthase

Chain of Fatty acid synthase (P49327 whole entry): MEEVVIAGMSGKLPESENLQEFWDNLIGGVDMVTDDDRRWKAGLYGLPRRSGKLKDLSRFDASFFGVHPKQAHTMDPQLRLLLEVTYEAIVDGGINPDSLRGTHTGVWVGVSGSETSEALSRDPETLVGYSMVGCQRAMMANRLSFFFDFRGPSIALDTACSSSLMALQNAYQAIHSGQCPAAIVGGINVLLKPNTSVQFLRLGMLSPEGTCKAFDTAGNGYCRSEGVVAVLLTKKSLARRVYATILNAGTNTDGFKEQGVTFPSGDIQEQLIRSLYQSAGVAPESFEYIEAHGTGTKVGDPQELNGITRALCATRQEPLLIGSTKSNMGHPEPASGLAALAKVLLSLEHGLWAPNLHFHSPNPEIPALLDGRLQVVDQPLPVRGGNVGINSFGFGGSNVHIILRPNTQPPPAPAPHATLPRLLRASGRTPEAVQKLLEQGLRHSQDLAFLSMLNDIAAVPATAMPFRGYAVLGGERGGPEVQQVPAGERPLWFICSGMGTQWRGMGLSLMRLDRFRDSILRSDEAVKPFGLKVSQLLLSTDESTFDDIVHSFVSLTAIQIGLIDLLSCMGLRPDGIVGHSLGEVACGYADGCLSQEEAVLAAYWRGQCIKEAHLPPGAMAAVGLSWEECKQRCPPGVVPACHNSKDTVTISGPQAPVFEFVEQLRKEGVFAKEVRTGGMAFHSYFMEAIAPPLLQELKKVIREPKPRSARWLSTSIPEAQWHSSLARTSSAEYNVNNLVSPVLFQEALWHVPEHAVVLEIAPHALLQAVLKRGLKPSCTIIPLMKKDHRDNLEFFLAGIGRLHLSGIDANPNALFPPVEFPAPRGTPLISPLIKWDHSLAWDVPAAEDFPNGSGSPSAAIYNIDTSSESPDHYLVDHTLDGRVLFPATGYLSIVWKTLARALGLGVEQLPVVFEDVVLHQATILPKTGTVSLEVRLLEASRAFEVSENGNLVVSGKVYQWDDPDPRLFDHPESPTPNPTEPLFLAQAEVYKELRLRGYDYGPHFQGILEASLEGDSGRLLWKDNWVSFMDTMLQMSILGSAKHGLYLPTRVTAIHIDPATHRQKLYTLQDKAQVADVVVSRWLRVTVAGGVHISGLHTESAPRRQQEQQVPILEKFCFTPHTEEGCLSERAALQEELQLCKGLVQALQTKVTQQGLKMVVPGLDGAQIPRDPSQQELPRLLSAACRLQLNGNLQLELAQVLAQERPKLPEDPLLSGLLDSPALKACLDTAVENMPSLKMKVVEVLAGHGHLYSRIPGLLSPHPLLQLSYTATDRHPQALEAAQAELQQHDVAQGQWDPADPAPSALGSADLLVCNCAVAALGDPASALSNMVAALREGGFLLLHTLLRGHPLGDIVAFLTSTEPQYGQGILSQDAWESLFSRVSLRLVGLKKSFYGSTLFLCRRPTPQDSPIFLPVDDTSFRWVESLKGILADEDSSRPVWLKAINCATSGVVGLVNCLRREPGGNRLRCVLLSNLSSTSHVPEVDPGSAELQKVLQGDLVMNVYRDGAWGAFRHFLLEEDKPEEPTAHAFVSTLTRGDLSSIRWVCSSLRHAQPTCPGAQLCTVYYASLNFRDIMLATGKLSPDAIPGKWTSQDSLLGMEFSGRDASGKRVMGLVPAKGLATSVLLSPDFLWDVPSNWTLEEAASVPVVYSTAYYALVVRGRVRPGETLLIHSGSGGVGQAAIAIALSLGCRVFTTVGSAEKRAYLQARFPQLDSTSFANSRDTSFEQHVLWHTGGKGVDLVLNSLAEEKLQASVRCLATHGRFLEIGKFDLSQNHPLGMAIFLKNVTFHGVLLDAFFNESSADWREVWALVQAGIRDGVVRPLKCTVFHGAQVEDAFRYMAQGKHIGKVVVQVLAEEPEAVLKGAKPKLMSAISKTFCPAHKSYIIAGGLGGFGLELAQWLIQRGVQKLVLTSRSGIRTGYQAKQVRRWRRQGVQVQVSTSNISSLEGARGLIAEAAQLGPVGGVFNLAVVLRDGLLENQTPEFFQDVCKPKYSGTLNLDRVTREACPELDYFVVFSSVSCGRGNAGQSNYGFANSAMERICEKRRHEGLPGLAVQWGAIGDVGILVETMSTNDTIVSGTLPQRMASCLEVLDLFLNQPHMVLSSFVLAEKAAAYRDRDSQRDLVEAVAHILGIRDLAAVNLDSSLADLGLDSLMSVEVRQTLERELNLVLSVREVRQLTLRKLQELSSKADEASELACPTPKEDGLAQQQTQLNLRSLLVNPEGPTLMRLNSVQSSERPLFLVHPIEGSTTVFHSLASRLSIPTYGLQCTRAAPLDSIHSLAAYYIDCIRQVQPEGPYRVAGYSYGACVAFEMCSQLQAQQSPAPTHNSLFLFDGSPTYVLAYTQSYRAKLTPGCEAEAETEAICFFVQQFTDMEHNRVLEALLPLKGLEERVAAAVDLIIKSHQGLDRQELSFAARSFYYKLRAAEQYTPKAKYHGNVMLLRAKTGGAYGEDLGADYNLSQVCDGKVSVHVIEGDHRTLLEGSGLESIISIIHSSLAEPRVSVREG

Compound | pIC50
C/C=C/C/C=C/CCC(=O)[C@H]1O[C@H]1C(N)=O [CERULENIN] | 6.07
COc1ccc([C@@H]2CC(=O)c3c(O)c(C)c(O[C@@H]4O[C@H](CO[C@@H]5OC[C@H](O)[C@H](O)[C@H]5O)[C@@H](O)[C@H](O)[C@H]4O)c(C)c3O2)cc1 [MICONIOSIDE A] | < 4.09
